Reference: patent publication US10238713B2, “Cyclic tetrapeptides and therapeutic applications thereof” (LODZ UNIVERSITY OF TECHNOLOGY, priority 2010, dated 2019)
Read-outs that look alike come from different tables or passages of the source. Non-standard residues stand in square brackets, D forms with d. Residues, ends and D or L forms follow the SMILES beside them. *: point of attachment. d(β3hF) = N[C@@H](CC(=O)O)Cc1ccccc1; Tic = O=C(O)[C@@H]1Cc2ccccc2CN1; β3hF = N[C@H](CC(=O)O)Cc1ccccc1; tBu = CC(C)(C)*

What was measured:
[1] = system: mice, carrageenan air pouch; assay: Carrageenan air-pouch test (exudate cell number); type: in vivo, mouse; conditions: peptides 100 μg i.p. one hour before carrageenan, 24 h; FIGS. 18A-18B
Method: (§1) In this and the air-pouch test, 1.5 mg peptide was dissolved in 300 μl of DMSO, then in 0.9% NaCl to achieve the desired dose (250 μg/0.2 ml or 100 μg/0.2 ml). Carrageenan (Sigma) was dissolved in 0.9% aqueous NaCl (overnight). 50 μl of 2% carrageenan solution was injected intradermally into hind foot pads. The peptides were given in a single 250 μg dose (0.2 ml) per mouse intraperitoneally (i.p.), 30 min before carrageenan administration. Dexamethasone (DEX) (Dexaven, Polfa, Poland), a reference drug, was given i.p. in dose 25 μg per mouse. Control mice were administered i.p. appropriately diluted solvent (DMSO in aqueous NaCl) instead of peptides. The foot pads of “background” (BG) mice were injected with 50 μl of 0.9% aqueous NaCl. Foot pad edema was measured with a spring caliper, 2 h, 3 h and 4 h after administration of carrageenan. The results are presented in FIGS. 17A, 17B and 17C as mean values of the antigen-specific increase of the foot pad thickness measured in 5 mice in each experimental group and expressed in mm ±SE (only results from measurements 4 h following administration of carrageenan are presented in figures). Statistics: FIG. 17A: Control vs: DEX P=0.0001; 4B8M P=0.0001; P25 NS (P=1.0000); P28 NS (P=1.0000); P31 NS (P=0.0528); P35 P=0.0008 (ANOVA of Kruskal-Wallis); FIG. 17B: Statistics: Control vs: P22 NS (P=1.0000); P26 NS (P=1.0000); P27 P=0.0050; P30 P=0.0004; P33-b NS (P=1.0000); SP00-b P=0.0001; P00S-b NS (P=1.0000) (ANOVA of Kruskal-Wallis); FIG. 17C: Statistics: Control vs: P21 P=0.0147; P23-2 P=0.0083; P24 P=0.0001; P29 NS (P=0.9999); P32 P=0.0001; P33 NS (P=0.6806); P34 NS (P=0.1920) (ANOVA).
Air pouches were formed by subdermal injection into the dorsal region (in a halothane anesthesia) of 5 cm^3 of air (needle 23G x 11/4, 5 ml syringe). On day 3 the air pouches were given an additional 2 ml of air and an inflammatory process was elicited by an intra-pouch injection of 1% of carrageenan in 0.5 ml of 0.9% aqueous NaCl. The peptides were given i.p. at a dose of 100 μg one hour before carrageenan injection into the air pouch. The mice from the “background” (BG) group were given 0.9% aqueous NaCl i.p. and 0.9% aqueous NaCl into the air pouches. Control mice were given appropriately diluted DMSO i.p. and carrageenan into the air pouches. 24 h after carrageenan injection, the mice were sacrificed by cervical dislocation, the air pouches were supplemented with 1 ml of 0.9% aqueous NaCl and the exudates from the air pouches were aspirated using a syringe. The exudates were diluted with 0.9% aqueous NaCl and the cells were counted in a Bürker hemocytometer. Data are presented in FIGS. 18A and 18B as the mean values from 10 mice/group (cell number×10^6 per mouse) ±SE. Then the cells were centrifuged and 0.1 ml of the supernatant was saved for TNF-α determination (see Determination of TNF-α activity, above). The cell pellets were used to perform smears on microscopic glasses, which were stained with Giemsa and May-Grünwald reagents for evaluation of mast cell degranulation. Cell analysis was performed by a histologist using a light microscope and 1000× magnification. The content of intact and degranulated mast cells is given in percentage (mean values from 10 mice/group) ±SE. Statistics: FIG. 18A: BG vs Control P=0.0000; Control vs: DEX P=0.0034; 4B8M P=0.0005; P22 NS (P=0.7275); P26 P=0.0032; P27 NS (P=0.0659); P35 NS (P=1.0000) (ANOVA of Kruskal-Wallis); FIG. 18B: Control vs: P21 NS (P=0.322); P23-2 P=0.0020; P24 P=0.0001; P25 P=0.0418; P28 NS (P=0.3502); P29 NS (P=0.0582); P30 P=0.0006; P31 P=0.0078; P32 P=0.0340; P33 NS (P=0.9993); P34 NS (p=0.0566) (ANOVA).

[2] = system: mice, carrageenan-induced foot pad edema; assay: Carrageenan-induced foot-pad edema test; type: in vivo, mouse; conditions: 4 h after carrageenan; peptides 250 μg i.p., DEX 25 μg i.p., 30 min before; FIGS. 17A-17C
Method: as §1

[3] = system: PHA-induced proliferation of human peripheral blood mononuclear cells (PBMC); assay: Proliferative response of PBMC to PHA (MTT); type: cell-based; conditions: four-day incubation
Method: (§2) PBMC were isolated by centrifugation on Ficoll-uropoline gradient (density 1.077 g/ml) (Lymphoprep; PAA Laboratories), at 800×g for 20 min at 4° C. The interphase cells, consisting of lymphocytes (20%) and monocytes (80%) were then washed three times with Hanks' medium and re-suspended in the culture medium at density of 2×10^6 cells/ml.
The isolated PBMC were distributed into 96-well flat-bottom plates in 100 μl aliquots (2×10^5 cells/well). PHA was used at concentration of 5 μg/ml. The compounds were tested at concentrations of 1, 10 and 100 μg/ml. DMSO at appropriate dilutions served as control. After a four-day incubation in a cell culture incubator, the proliferative response of cells was determined by the colorimetric MTT method (Hansen et al., J. Immunol. Methods, 1989, pp. 203-210). The data are presented as a mean OD value from quadriplicate wells ±standard error (SE). The cultures “Control (−)” contained no mitogen (PHA). The cultures “Control (PHA)” contained PHA but not cyclic tetrapeptides.
Briefly, 25 μl of MTT (5 mg/ml) stock solution was added per well at the end of cell incubation and the plates were incubated for 3 h in a cell culture incubator. Then, 100 μl of the extraction buffer (20% SDS with 50% DMF, pH 4.7) was added. After additional overnight incubation, the optical density was measured at 550 nm (Dynatech 5000).

human PBMC = assay: Toxicity test: PBMC survival in 24 h culture (MTT); conditions: ANOVA
Method: as §2
Appropriate dilutions of DMSO in RPMI 1640 medium were used as controls. Cell survival was determined by the MTT colorimetric method (Hansen et al., J. Immunol. Methods, 1989, pp. 203-210). The data are presented as a mean OD value from quadriplicate wells ±standard error (SE). The cultures “Control (−)” contained only cells in the culture medium.
The assay was performed per Hansen et al., J. Immunol. […] Briefly, 25 μl of MTT (5 mg/ml) stock solution was added per well at the end of cell incubation and the plates were incubated for 3 h in a cell culture incubator. Then, 100 μl of the extraction buffer (20% SDS with 50% DMF, pH 4.7) was added. After additional overnight incubation, the optical density was measured at 550 nm (Dynatech 5000).

[4] = system: LPS-induced TNF-α production; type: cell-based; conditions: Table 2A
Method: Human whole blood was diluted 10-fold with RPMI-1640 medium and distributed to 24-well culture plates in 1 ml aliquots. LPS was added to the culture at a concentration of 1 μg/ml. The studied peptides were used at concentrations of 1, 10 and 100 μg/ml. After overnight incubation, the supernatants were harvested and frozen at −20° C. until cytokine determination. TNF-α activity was determined using a bioassay. Briefly, WEHI 164.13 cells (ATCC CRL 1751) were seeded at a concentration of 2×10^4 cells/well in quadriplicate. Increasing dilutions of the assayed supernatant were mixed with the target cells in the presence of actinomycin D (1 μg/ml). After 20 h of incubation, MTT was added into the wells, and the cultures were incubated for an additional 4 h. […] The detection limit of the assay was about 2.5 pg/ml. One unit of TNF-α activity was defined as an inverse of supernatant dilution where 50% cell death took place. The cultures labeled “Control (−)” contained no LPS. The cultures labeled “Control (LPS)” contained LPS and none of the studied compounds. Statistical analysis was not applied since the data derive from single cultures (wells).

[5] = 10 μg/ml, FIGS. 8A-8F (4B8M repeated per figure)
[6] = 100 μg/ml, FIGS. 8A-8F (4B8M repeated per figure)
[7] = compound 1 μg/ml, LPS 1 μg/ml, overnight
[8] = compound 100 μg/ml (DMSO only: 196)

SMILES | air pouch exudate cell number, P vs Control [1] | foot pad edema (increase of foot pad thickness), P vs Control [2] | PHA-induced PBMC proliferation, P vs DMSO at appropriate dilution ([3]; 100 μg/ml, FIGS. 9A-9F) | PBMC survival, P vs DMSO at appropriate dilution (human PBMC; [5]) | PBMC survival, P vs DMSO at appropriate dilution (human PBMC; [6]) | PHA-induced PBMC proliferation, P vs DMSO at appropriate dilution ([3]; 10 μg/ml, FIGS. 9A-9F) | PHA-induced PBMC proliferation, P vs DMSO at appropriate dilution ([3]; 1 μg/ml, FIGS. 9A-9B) | % inhibition vs. DMSO ([4]; compound 1 μg/ml) [%] | TNF-α [4, 7] [pg/mL] | % inhibition vs. DMSO ([4]; compound 10 μg/ml) [%] | TNF-α ([4]; compound 10 μg/ml) [pg/mL] | % inhibition vs. DMSO ([4]; compound 100 μg/ml) [%] | TNF-α [4, 8] [pg/mL] | PBMC survival, P vs DMSO at appropriate dilution (human PBMC; 1 μg/ml, FIGS. 8A-8B)
C[C@@H]1C[C@H]2[C@@H]3CCC4=CC(=O)C=C[C@]4(C)[C@@]3(F)[C@@H](O)C[C@]2(C)[C@@]1(O)C(=O)CO [DEX, dexamethasone, reference compound] | 0.0034 | 0.0001 |  |  |  |  |  |  |  |  |  |  |  | 
O=C1N[C@@H](Cc2ccccc2)CC(=O)N2Cc3ccccc3C[C@H]2C(=O)N2CCC[C@H]2C(=O)N2CCC[C@@H]12 [I-AA] (cyclo(PP[β3hF][Tic])) | 0.3502 | 1.0000 | 1.0000 | 0.9997 | 0.9978 |  |  |  |  |  |  |  |  | 
CC(C)(C)Oc1ccc(C[C@H]2CC(=O)N[C@@H](Cc3ccccc3)C(=O)N3CCC[C@H]3C(=O)N3CCC[C@H]3C(=O)N2)cc1 [I-AF] |  | 1.0000 | 0.0010 | 1.0000 | 0.0090 | 0.9850 |  |  |  |  |  |  |  | 
CC(C)(C)OC[C@@H]1NC(=O)[C@H](Cc2ccccc2)NC(=O)C[C@H](Cc2ccccc2)NC(=O)[C@@H]2CCCN2C1=O [I-AL] (cyclo(FS(tBu)P[β3hF])) |  | 0.0001 | 0.9976 | 1.0000 | 0.0466 | 0.2258 |  |  |  |  |  |  |  | 
O=C1C[C@H](Cc2ccccc2)NC(=O)[C@@H]2CCCN2C(=O)[C@@H]2CCCN2C(=O)[C@@H](Cc2ccccc2)N1 [I-D] (cyclo(PP[β3hF][dF])) |  |  | 1.0000 |  |  | 0.9999 | 1.0000 | 14.1 | 7016 | 28.1 | 5757 | 28.1 | 141 | 
O=C1C[C@H](Cc2ccccc2)NC(=O)[C@H]2CCCN2C(=O)[C@H]2CCCN2C(=O)[C@@H](Cc2ccccc2)N1 [I-E] (cyclo([dF][dP][dP][β3hF])) |  |  | 0.9982 |  |  | 1.0000 | 1.0000 | 19.0 | 6614 | 20.7 | 6346 | 10.2 | 176 | 
O=C1C[C@H](Cc2ccccc2)NC(=O)[C@@H]2CCCN2C(=O)[C@H]2CCCN2C(=O)[C@H](Cc2ccccc2)N1 [I-F] (cyclo([dP]P[β3hF]F)) |  |  | 0.0001 |  |  | 0.9930 | 1.0000 | 25.9 | 6052 | 34.8 | 5222 | 61.2 | 76 | 
O=C1C[C@@H](Cc2ccccc2)NC(=O)[C@@H]2CCCN2C(=O)[C@@H]2CCCN2C(=O)[C@H](Cc2ccccc2)N1 [I-G] (cyclo(FPP[d(β3hF)])) |  |  | 0.9970 |  |  | 0.4297 | 0.9047 | 33.1 | 5463 | 33.8 | 5302 | 70.4 | 58 | 
O=C1C[C@H](Cc2ccccc2)NC(=O)[C@H]2CCCN2C(=O)[C@@H]2CCCN2C(=O)[C@H](Cc2ccccc2)N1 [I-H] (cyclo(FP[dP][β3hF])) |  |  | 0.2037 |  |  | 1.0000 | 0.5198 | 12.8 | 7123 | 10.0 | 7203 | 43.9 | 110 | 
O=C1C[C@@H](Cc2ccccc2)NC(=O)[C@H]2CCCN2C(=O)[C@H]2CCCN2C(=O)[C@@H](Cc2ccccc2)N1 [I-J] (cyclo([d(β3hF)][dF][dP][dP])) |  |  | 0.1257 |  |  | 1.0000 | 1.0000 | 1.6 | 8033 | 4.4 | 7658 | 0.0 | 203 | 
O=C1C[C@H](Cc2ccccc2)NC(=O)[C@@H]2CCCN2C(=O)[C@@H]2CCCN2C(=O)[C@H](Cc2c[nH]c3ccccc23)N1 [I-L] (cyclo(PP[β3hF]W)) |  |  |  | 1.0000 | 0.9957 |  |  |  |  |  |  |  |  | 0.9999
CC(C)(C)Oc1ccc(C[C@@H]2NC(=O)C[C@H](Cc3ccccc3)NC(=O)[C@@H]3CCCN3C(=O)[C@@H]3CCCN3C2=O)cc1 [I-N] (cyclo(PP[β3hF]Y(tBu))) |  |  |  | 1.0000 | 1.0000 |  |  |  |  |  |  |  |  | 1.0000
